Laboratory results: publication PMC6514771, “A Stapled Peptide Mimic of the Pseudosubstrate Inhibitor PKI Inhibits Protein Kinase A” (Molecules, 2019)

Columns and labels:
[1] = target: human PKA catalytic isoform Cα (PKA-Cα) (Homo sapiens, UniProt P17612); test: Fluorescence polarization (FP) direct binding; settings: FAM-labeled negative control peptide; three independent measurements with three protein preparations
[2] = target: human PKA catalytic isoform Cβ1 (PKA-Cβ1) (Homo sapiens, UniProt P22694); test: Fluorescence polarization (FP) direct binding; settings: FAM-labeled negative control peptide; three independent measurements with three protein preparations

βA-TTY*DFI*SGRTGFFNAIHD (sidechain bridge or staple) [negative control peptide]
binding to PKA-Ca (FP) [1]: No binding
binding to PKA-Cb (FP) [2]: No binding
